Columns and labels:
NHE3 = molecular target: T1, NHE3 (Homo sapiens, UniProt P48764); experiment: Cell-based assay of NHE-3 activity (pre-incubation inhibition), human; settings: human Preincubation; for pIC50: 0-30 μM test compound
T1 construct: expressed in transfected cells
T1 sequence (P48764 26-834): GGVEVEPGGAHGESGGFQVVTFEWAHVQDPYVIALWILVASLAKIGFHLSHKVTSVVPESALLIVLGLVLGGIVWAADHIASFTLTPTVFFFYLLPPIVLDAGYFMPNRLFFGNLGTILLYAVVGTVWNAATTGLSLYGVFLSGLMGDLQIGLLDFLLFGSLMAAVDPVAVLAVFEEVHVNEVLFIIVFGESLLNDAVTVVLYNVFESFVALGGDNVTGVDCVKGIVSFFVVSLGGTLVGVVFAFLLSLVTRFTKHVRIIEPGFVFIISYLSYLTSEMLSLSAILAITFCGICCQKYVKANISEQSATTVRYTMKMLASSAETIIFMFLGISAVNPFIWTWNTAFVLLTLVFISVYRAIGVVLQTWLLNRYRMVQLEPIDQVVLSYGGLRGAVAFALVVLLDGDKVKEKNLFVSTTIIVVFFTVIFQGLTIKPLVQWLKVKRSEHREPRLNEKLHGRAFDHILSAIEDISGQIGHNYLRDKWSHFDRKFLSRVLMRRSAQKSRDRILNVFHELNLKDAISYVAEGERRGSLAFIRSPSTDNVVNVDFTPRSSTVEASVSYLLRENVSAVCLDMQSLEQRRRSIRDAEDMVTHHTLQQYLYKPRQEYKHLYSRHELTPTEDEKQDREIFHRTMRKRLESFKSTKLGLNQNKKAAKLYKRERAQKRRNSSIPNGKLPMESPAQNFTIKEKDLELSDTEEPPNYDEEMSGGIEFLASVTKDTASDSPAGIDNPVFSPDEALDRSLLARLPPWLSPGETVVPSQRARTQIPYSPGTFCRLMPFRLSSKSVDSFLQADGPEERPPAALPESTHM
T1 sequence (Q99653 2-195 partner limits assumed): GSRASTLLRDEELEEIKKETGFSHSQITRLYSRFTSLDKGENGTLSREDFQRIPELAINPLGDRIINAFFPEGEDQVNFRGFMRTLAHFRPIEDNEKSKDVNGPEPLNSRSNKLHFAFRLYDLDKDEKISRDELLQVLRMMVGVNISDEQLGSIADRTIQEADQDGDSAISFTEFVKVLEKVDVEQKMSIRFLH
In short: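 Activity read as initial rate of BCECF fluorescence ratio change per minute (ex 439/505, em 538 nm) following NH4Cl prepulse acid loading. Compound (0–30 μM) present during 10 min Na+-free acidification at room temperature; cells were PS120 fibroblasts stably co-expressing human NHE3 and NHERF2.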

[1] = system: human duodenum monolayer culture; experiment: Sustained inhibition of apical acid secretion in human organoid monolayer cell cultures (duodenum); type: cell-based; settings: Homo sapiens
Method: Basal media (BM) consisted of advanced DMEM/F12 containing 10 mM HEPES Invitrogen, 15630-080), 1:100 Glutamax (Invitrogen, 35050-061), and 1:100 penicillin/streptomycin (Invitrogen, 15140-122). Supplemented basal media (SBM) contained 1:100 N2 (Invitrogen, 17502-048), 1:50 B27 (Invitrogen, 12587-010), 1 mM N-acetylcysteine (Sigma, A9165), and 10 nM [Leu15]-gastrin I (Sigma, G9145). Growth factors used included 50 ng per mL mouse EGF (Peprotech, 315-09), 100 ng per mL mouse noggin (Peprotech, 250-38), 500 ng per mL human R-spondin 1 (R&D, 4645-RS), 100 ng per mL mouse Wnt-3a (R&D, 1324-WN), 20 μM. Y-27632 (Tocris, 1254), 10 mM nicotinamide (Sigma, N0636), 500 nM A83-01 (Tocris, 2939), 10 μM SB202190 (Tocris, 1264). Transwells were 0.4 μm pore polyester membrane 24-well Transwell inserts (Corning). Cultures were incubated at 37° C. in 5% CO2.
Each human ileum monolayer culture well was washed twice with fresh SBM on the apical side on day 6 before compound dosing. All compound stocks were 10 mM dissolved in DMSO. Each compound stock was individually mixed with fresh SBM to reach final compound concentration 1 μM and dosed only on the apical side of the monolayer (total volume 200 μl). DMSO at the equivalent concentration was used as the vehicle control. Duplicate wells were dosed for each compound. On day 8, apical media pH was measured by pH electrode, to determine the ability of example compounds to produce sustained inhibition of NHE3 activity in a human monolayer culture system by preventing proton secretion into the apical compartment.
Human duodenum organoids were cultured in WENRNAS (Wnt, EGF, noggin, R-spondin1, Nicotinamide, A83-01, SB202190) and typically grown for 7-12 days before being used to plate monolayer cultures. On day 0, organoid cultures embedded in Matrigel were treated with TrypLE Express to break organoids into small pieces and/or single cells. The cells were resuspended to 0.5×10^6 cells/mL in SBM containing WENRAY (Wnt, EGF, noggin, R-spondin1, A83-01, Y-27632). Following this step, 200 μL of cell suspension was plated into the apical side of a 24-well Transwell (100,000 cells/well) and 600 μL of SBM with WENRAY was added to the basolateral side. Duodenum cells were differentiated with ENA (EGF, noggin, A83-01) on day 3. The color of apical compartment turns from pink or orange to yellow due to the increase in NHE3 expression after differentiation.

| SMILES | % inhibition (NHE3) | inhibition at 1 µM [1] [%] | pIC50 (NHE3) |
| --- | --- | --- | --- |
| O=C(NCCCCNC(=O)NCCOCCOCCNS(=O)(=O)c1ccc(O[C@H]2c3cc(Cl)cc(Cl)c3C[C@@H]2N2CCNCC2)c(F)c1)NCCOCCOCCNS(=O)(=O)c1ccc(O[C@H]2c3cc(Cl)cc(Cl)c3C[C@@H]2N2CCNCC2)c(F)c1 [Example 33, 3-[2-(2-[2-[(4-[[(1S,2S)-4,6-Dichloro-2-(piperazin-1-yl)-2,3-dihydro-1H-inden-1-yl]oxy]-3-fluorobenzene)sulfonamido]ethoxy]ethoxy)ethyl]-1-[4-[[(2-(2-[2-[(4-[[(1S,2S)-4,6-dichloro-2-(piperazin-1-yl)-2,3-dihydro-1H-inden-1-y]oxy]-3-fluorobenzene)sulfonamido]ethoxy]ethoxy)ethyl]carbamoyl]amino)butyl]urea; bis(trifluoroacetic acid)] | C (>70%) | > 70 | – |
| Cc1cc(Cl)cc2c1C[C@H](N1CCNCC1)[C@H]2Oc1ccc(S(=O)(=O)NCCOCCOCCNC(=O)NCCCCNC(=O)NCCOCCOCCNS(=O)(=O)c2ccc(O[C@H]3c4cc(Cl)cc(C)c4C[C@@H]3N3CCNCC3)cc2)cc1 [Example 34, 3-[2-(2-[2-[(4-[[(1S,2S)-6-Chloro-4-methyl-2-(piperazin-1-yl)-2,3-dihydro-1H-inden-1-yl]oxy]benzene)sulfonamido]ethoxy]ethoxy)ethyl]-1-[4-([[2-(2-[2-[(4-[[(1S,2S)-6-chloro-4-methyl-2-(piperazin-1-yl)-2,3-dihydro-1H-inden-1-yl]oxy]benzene)sulfonamido]ethoxy]ethyl)ethyl]carbamoyl]amino)butyl]urea; bis(trifluoroacetic acid)] | C (>70%) | 50 to 70 | – |
| Cc1cc(S(=O)(=O)NCCOCCOCCNC(=O)NCCCCNC(=O)NCCOCCOCCNS(=O)(=O)c2ccc(O[C@H]3c4cc(Cl)cc(C)c4C[C@@H]3N3CCNCC3)c(C)c2)ccc1O[C@H]1c2cc(Cl)cc(C)c2C[C@@H]1N1CCNCC1 [Example 35, 3-[2-(2-[2-[(4-[[(1S,2S)-6-Chloro-4-methyl-2-(piperazin-1-yl)-2,3-dihydro-1H-inden-1-yl]oxy]-3-methylbenzene)sulfonamido]ethoxy]ethoxy)ethyl]-1-[4-([[2-(2-[2-[(4-[[(1S,2S)-6-chloro-4-methyl-2-(piperazin-1-yl)-2,3-dihydro-1H-inden-1-yl]oxy]-3-methylbenzene)sulfonamido]ethoxy]ethoxy)ethyl]carbamoyl]amino)butyl]urea; bis(trifluoroacetic acid)] | C (>70%) | > 70 | C (NHE3 pIC50 > 7) |
| Cc1cc(Cl)cc2c1C[C@H](N1CCNCC1)[C@H]2Oc1ccc(S(=O)(=O)NCCOCCOCCNC(=O)NCCCCNC(=O)NCCOCCOCCNS(=O)(=O)c2ccc(O[C@H]3c4cc(Cl)cc(C)c4C[C@@H]3N3CCNCC3)c(F)c2)cc1F [Example 36, 3-[2-(2-[2-[(4-[[(1S,2S)-6-Chloro-4-methyl-2-(piperazin-1-yl)-2,3-dihydro-1H-inden-1-yl]oxy]-3-fluorobenzene)sulfonamido]ethoxy]ethoxy)ethyl]-1-[4-([[2-(2-[2-[(4-[[(1S,2S)-6-chloro-4-methyl-2-(piperazin-1-yl)-2,3-dihydro-1H-inden-1-yl]oxy]-3-fluorobenzene)sulfonamido]ethoxy]ethoxy)ethyl]carbamoyl]amino)butyl]urea; bis(trifluoroacetic acid)] | C (>70%) | > 70 | C (NHE3 pIC50 > 7) |
